Data: US20100254951A1, “Nerve Regeneration Promoting Agent” (MOCHIDA PHARMACEUTICAL CO., LTD., priority 2005, published 2010)

What was measured:
[1] = tested on: neural stem cells and cells differentiated from neural stem cells; test: Effect on apoptosis of neural stem cells and cells differentiated from neural stem cells (pycnotic cells by PI staining, TUNEL); type: cell-based, rat; settings: cultivated under differentiation induction for 7 days; n=6; P=0.01 vs control
Experimental: In the same way as Experimental Example 1, neural stem cells were divided into DHA group and control (DHA free) group and cultivated under culture conditions for differentiation induction for 7 days, and pycnotic cells were evaluated by PI staining.
Apoptosis in the pycnotic cells were confirmed by TUNEL staining. The TUNEL staining was performed using Red In Situ Apoptosis Detection kit (Chemicon). Cells of the DHA group and the control group were cultivated for 7 days under the above-mentioned differentiation conditions and fixed with 4% paraformaldehyde, followed by incubation together with digoxigenin-dUTP in the presence of TdT at 37° C. for 1 hour. TUNEL-labeled cells were detected with Rhodamine conjugated anti-digoxigenin antibody and observed using confocal scanning laser microscopy.

neural stem cells = test: Effect on proliferative activity of neural stem cells (BrdU incorporation); type: cell-based, rat; settings: 10 μM BrdU, cultivation for 24 hours under differentiation induction; n=6; P=0.02 vs control
Experimental: In the same way as Experimental Example 1, neural stem cells were divided into DHA group and control (DHA free) group, and 10 μM 5-bromo-2′-droxyuridine (BrdU; Sigma) was added under culture conditions for differentiation induction, followed by cultivation for 24 hours. Thereafter, the cells were treated with 2N HCl at 37° C. for 10 minutes and treated with 0.1 M borate buffer (Na2B4O7, pH 8.5) for 5 minutes. The cell were treated with anti-mouse BrdU antibody (1:1000 Chemicon) and then treated with FITC-labeled secondary antibody.
7 random fields per well were sampled, and the numbers of BrdU-positive cells were counted to calculate a ratio of the number of BrdU-positive cells to the number of total cells. The number of total cells was counted by PI staining. Statistical analysis was evaluated by student's t-test.

[2] = tested on: adult rat hippocampal dentate gyrus; test: Effect on neurogenesis in adult rat hippocampal dentate gyrus region (BrdU-NeuN double positive cells); type: in vivo; settings: 300 mg/kg/day gavaged for 7 weeks
Experimental: 18-week-old Wister male rats fed with a fish oil-free diet for three generations were used. To DHA group, 4,7,10,13,16,19-docosahexaenoate suspended in a 5% gum arabic solution was gavaged at 300 mg/kg/day every day for 7 weeks. To control group, in the same way as above, only a 5% gum arabic solution was gavaged in the same dose. From 2 weeks after initiation of oral administration, BrdU dissolved in PBS (−) was injected to rats intraperitoneally once a day for 5 days (50 mg/kg).
4 weeks after completion of BrdU administration, PBS (−) was perfused from the hearts of the rats, followed by fixation with 4% paraformaldehyde. The brains were isolated and fixed with paraformaldehyde for further 24 hours, followed by exchange for 25% sucrose. Coronal sections (40 μm) were cut by a microtome, and nuclei labeled with BrdU were detected by the following procedures. […]
Six sections were selected at intervals of 240 μm from the rostro caudal region of a granular cell layer in the whole dentate gyrus, and BrdU-NeuN double positive cells in the granular cell layer and subgranular zone (inside zone along the granular cell layer) were counted. […] The referential volume of the granular cell layer was calculated from the areas of the sampled sections.

## CC/C=C\C/C=C\C/C=C\C/C=C\C/C=C\C/C=C\CCC(=O)O [DHA, docosahexaenoic acid]
[1]
  ratio of the pycnotic cells to the number of total cells: 54.3±3.7%
Neural stem cells
  ratio of BrdU-positive cells to the number of total cells: 16.3±1.0%
[2]; 18-week-old Wister male rats
  number of BrdU-NeuN double positive cells in the whole granular cell layer of the dentate gyrus compared to the control group: 1.6 fold
[2]; n=3, P=0.005 vs control
  average number of the BrdU-NeuN double positive cells in the respective sections: 878±72.3 cells
